From patent publication US11000033B2, “Ketone or oxime compound, and herbicide” (NISSAN CHEMICAL CORPORATION, priority 2014, dated 2021)

Experiments:
Format in all cases: in vivo
Cyperus difformis = assay: Test Example 3: herbicidal effect by foliage application, Wagner pot (symbol E); details: application herbicide amount 320 g/ha
Procedure, shortened: (§1)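 Rating at 3 weeks post-spray, by defined criteria. Treatment: emulsion diluted with water to a predetermined amount, applied evenly to foliage of 14-day-old plants raised in alluvial soil flooded 0.1–0.5 cm deep at 25–30 °C, rice co-sown.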

Leptochloa chinensis = assay: Test Example 3: herbicidal effect by foliage application, Wagner pot (symbol D); details: application herbicide amount 320 g/ha
Procedure, shortened: as §1

Lolium multiflorum Lam. [1] = assay: Test Example 5: herbicidal effect by foliage application, plastic box (symbol K); details: 320 g/ha, 3 weeks after application
Procedure, shortened: (§2)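 Emulsion formulation, diluted with water to the intended rate, was applied uniformly to leaves by small sprayer. Recipients were 14-day greenhouse-grown seedlings (25° C. to 30° C.). Assessment followed at 3 weeks.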

Apera spica-venti = assay: Test Example 5: herbicidal effect by foliage application, plastic box (symbol L); details: 320 g/ha, 3 weeks after application
Procedure, shortened: as §2

Digitaria ciliaris = assay: Test Example 4: herbicidal effect by soil treatment (symbol F)
Procedure, shortened: (§3)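 Seeds were sown in sterilized diluvial soil, covered with about 1.5 cm of soil, and the soil surface was sprayed with a water-diluted emulsion of the compound at a predetermined rate. Plants grew in a greenhouse at 25° C. to 30° C.; effects were scored visually 3 weeks after application.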

Amaranthus retroflexus = assay: Test Example 4: herbicidal effect by soil treatment (symbol N)
Procedure, shortened: as §3

[2] = tested on: directly sowed rice plant; assay: Test Example 3: effect on crop by foliage application, Wagner pot (symbol b); details: application herbicide amount 320 g/ha
Procedure, shortened: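 Steps: fill a 1/10000-are Wagner pot with alluvial soil; add water and mix to submerge at 0.1–0.5 cm depth; sow rice plus Echinochloa crus-galli var. crus-galli, Leptochloa chinensis and Cyperus difformis; grow in a 25–30 °C greenhouse.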

Lolium multiflorum Lam. [3] = assay: Test Example 4: herbicidal effect by soil treatment (symbol K)
Procedure, shortened: as §3

rapeseed = assay: Test Example 5: effect on crop by foliage application, plastic box (symbol g); details: 320 g/ha, 3 weeks after application
Procedure, shortened: (§4)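 Diluvial soil, sterilized and boxed (21 × 13 × 7 cm), received spot-sown seed covered by about 1.5 cm soil; plants were then greenhouse-grown at 25–30° C.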

corn [4] = assay: Test Example 5: effect on crop by foliage application, plastic box (symbol c); details: 320 g/ha, 3 weeks after application
Procedure, shortened: as §4

Avena fatua = assay: Test Example 5: herbicidal effect by foliage application, plastic box (symbol I); details: 320 g/ha, 3 weeks after application
Procedure, shortened: as §2

Abutilon theophrasti [5] = assay: Test Example 4: herbicidal effect by soil treatment (symbol M)
Procedure, shortened: as §3

beet = assay: Test Example 5: effect on crop by foliage application, plastic box (symbol f); details: 320 g/ha, 3 weeks after application
Procedure, shortened: as §4

Setaria viridis = assay: Test Example 5: herbicidal effect by foliage application, plastic box (symbol G); details: 320 g/ha, 3 weeks after application
Procedure, shortened: as §2

corn [6] = assay: Test Example 4: effect on crop by soil treatment (symbol c); details: for c: corn, effect grade on crop: 320 g/ha
Procedure, shortened: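 Crop seed is sown in spots together with several weed species in a box of sterilized diluvial soil. It is covered by about 1.5 cm of soil and kept in a greenhouse held between 25° C. and 30° C.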

[7] = tested on: Echinochloa crus-galli var. crus-galli; assay: Test Example 4: herbicidal effect by soil treatment (symbol H)
Procedure, shortened: as §3

Chenopodium album = assay: Test Example 5: herbicidal effect by foliage application, plastic box (symbol O); details: 320 g/ha, 3 weeks after application
Procedure, shortened: as §2

soybean = assay: Test Example 4: effect on crop by soil treatment (symbol d); details: for d: soybean, effect grade on crop: 320 g/ha
Procedure, shortened: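 Soil-treatment setup: crop and weed seeds were spot-sown into sterilized diluvial soil, then buried beneath approximately 1.5 cm of it, and the boxes were housed in a 25–30° C. greenhouse.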

wheat = assay: Test Example 5: effect on crop by foliage application, plastic box (symbol e); details: 320 g/ha, 3 weeks after application
Procedure, shortened: as §4

Abutilon theophrasti [8] = assay: Test Example 5: herbicidal effect by foliage application, plastic box (symbol M); details: 320 g/ha, 3 weeks after application
Procedure, shortened: as §2

Stellaria media = assay: Test Example 5: herbicidal effect by foliage application, plastic box (symbol P); details: 320 g/ha, 3 weeks after application
Procedure, shortened: as §2

[9] = application herbicide amount 320 g/ha

Structure (SMILES)	herbicidal effect on E, grade 0-5 (Cyperus difformis)	herbicidal effect on D (Leptochloa chinensis), grade 0-5 (Leptochloa chinensis)	K: Lolium multiflorum Lam., herbicidal effect grade (Lolium multiflorum Lam. [1])	L: Apera spica-venti, herbicidal effect grade (Apera spica-venti)	F: Digitaria ciliaris, herbicidal effect grade (Digitaria ciliaris; 320 g/ha)	N: Amaranthus retroflexus, herbicidal effect grade (Amaranthus retroflexus; 320 g/ha)	effect on crop b (directly sowed rice plant), grade 0-5 [2]	K: Lolium multiflorum Lam., herbicidal effect grade (Lolium multiflorum Lam. [3]; 320 g/ha)	g: rapeseed, effect on crop grade (rapeseed)	c: corn, effect on crop grade (corn [4])	I: Avena fatua, herbicidal effect grade (Avena fatua)	M: Abutilon theophrasti, herbicidal effect grade (Abutilon theophrasti [5]; 320 g/ha)	f: beet, effect on crop grade (beet)	G: Setaria viridis, herbicidal effect grade (Setaria viridis)	c: corn, effect grade on crop (corn [6])	H: Echinochloa crus-galli var. crus-galli, herbicidal effect grade ([7]; 320 g/ha)	O: Chenopodium album, herbicidal effect grade (Chenopodium album)	e: wheat, effect on crop grade (wheat)	M: Abutilon theophrasti, herbicidal effect grade (Abutilon theophrasti [8])	P: Stellaria media, herbicidal effect grade (Stellaria media)	also measured
CON=C(C)CC1CC(OC(=O)c2ccc(S(C)(=O)=O)c(C(=O)OC)c2Cl)=C(c2c(C)cc(C)cc2C)C1=O (stereo not drawn) [1-162]	5 (Herbicidal ratio of 90% or more (almost completely withered))	5 (Herbicidal ratio of 90% or more (almost completely withered))	5 (Herbicidal ratio of 90% or more (almost completely withered))	5 (Herbicidal ratio of 90% or more (almost completely withered))	5 (Herbicidal ratio of 90% or more (almost completely withered))	4 (Herbicidal ratio of 70% or higher and lower than 90%)	5 (Herbicidal ratio of 90% or more (almost completely withered))	5 (Herbicidal ratio of 90% or more (almost completely withered))	4 (Herbicidal ratio of 70% or higher and lower than 90%)	4 (Herbicidal ratio of 70% or higher and lower than 90%)	5 (Herbicidal ratio of 90% or more (almost completely withered))	5 (Herbicidal ratio of 90% or more (almost completely withered))	3 (Herbicidal ratio of 40% or higher and lower than 70%)	5 (Herbicidal ratio of 90% or more (almost completely withered))	2 (Herbicidal ratio of 20% or higher and lower than 40%)	5 (Herbicidal ratio of 90% or more (almost completely withered))	4 (Herbicidal ratio of 70% or higher and lower than 90%)	5 (Herbicidal ratio of 90% or more (almost completely withered))	4 (Herbicidal ratio of 70% or higher and lower than 90%)	4 (Herbicidal ratio of 70% or higher and lower than 90%)	d: soybean, effect grade on crop (soybean): 0 (Herbicidal ratio of 5% or lower (almost no effect))
CC(=O)C(C(C)=O)C1CC(O)=C(c2c(C)cc(C)cc2C)C1=O (stereo not drawn) [2-002]	0 (Herbicidal ratio of 5% or lower (almost no effect))	0 (Herbicidal ratio of 5% or lower (almost no effect))	5 (Herbicidal ratio of 90% or more (almost completely withered))	2 (Herbicidal ratio of 20% or higher and lower than 40%)	0 (Herbicidal ratio of 5% or lower (almost no effect))	0 (Herbicidal ratio of 5% or lower (almost no effect))	0 (Herbicidal ratio of 5% or lower (almost no effect))	0 (Herbicidal ratio of 5% or lower (almost no effect))	3 (Herbicidal ratio of 40% or higher and lower than 70%)	0 (Herbicidal ratio of 5% or lower (almost no effect))	1 (Herbicidal ratio of 5% or higher and lower than 20%)	0 (Herbicidal ratio of 5% or lower (almost no effect))	0 (Herbicidal ratio of 5% or lower (almost no effect))	4 (Herbicidal ratio of 70% or higher and lower than 90%)	0 (Herbicidal ratio of 5% or lower (almost no effect))	0 (Herbicidal ratio of 5% or lower (almost no effect))	3 (Herbicidal ratio of 40% or higher and lower than 70%)	0 (Herbicidal ratio of 5% or lower (almost no effect))	0 (Herbicidal ratio of 5% or lower (almost no effect))	2 (Herbicidal ratio of 20% or higher and lower than 40%)	d: soybean, effect grade on crop (soybean): 0 (Herbicidal ratio of 5% or lower (almost no effect))
COC(=O)C(C(C)=O)C1CC(O)=C(c2c(C)cc(C)cc2C)C1=O (stereo not drawn) [2-003]	4 (Herbicidal ratio of 70% or higher and lower than 90%)	5 (Herbicidal ratio of 90% or more (almost completely withered))	5 (Herbicidal ratio of 90% or more (almost completely withered))	4 (Herbicidal ratio of 70% or higher and lower than 90%)	4 (Herbicidal ratio of 70% or higher and lower than 90%)	0 (Herbicidal ratio of 5% or lower (almost no effect))	4 (Herbicidal ratio of 70% or higher and lower than 90%)	5 (Herbicidal ratio of 90% or more (almost completely withered))	3 (Herbicidal ratio of 40% or higher and lower than 70%)	3 (Herbicidal ratio of 40% or higher and lower than 70%)	5 (Herbicidal ratio of 90% or more (almost completely withered))	0 (Herbicidal ratio of 5% or lower (almost no effect))	0 (Herbicidal ratio of 5% or lower (almost no effect))	5 (Herbicidal ratio of 90% or more (almost completely withered))	0 (Herbicidal ratio of 5% or lower (almost no effect))	0 (Herbicidal ratio of 5% or lower (almost no effect))	0 (Herbicidal ratio of 5% or lower (almost no effect))	0 (Herbicidal ratio of 5% or lower (almost no effect))	1 (Herbicidal ratio of 5% or higher and lower than 20%)	0 (Herbicidal ratio of 5% or lower (almost no effect))	d: soybean, effect grade on crop (soybean): 0 (Herbicidal ratio of 5% or lower (almost no effect))
COCC(=O)CC1CC(O)=C(c2c(C)cc(C)cc2C)C1=O (stereo not drawn) [2-007]	5 (Herbicidal ratio of 90% or more (almost completely withered))	5 (Herbicidal ratio of 90% or more (almost completely withered))	4 (Herbicidal ratio of 70% or higher and lower than 90%)	3 (Herbicidal ratio of 40% or higher and lower than 70%)	–	–	5 (Herbicidal ratio of 90% or more (almost completely withered))	–	1 (Herbicidal ratio of 5% or higher and lower than 20%)	1 (Herbicidal ratio of 5% or higher and lower than 20%)	0 (Herbicidal ratio of 5% or lower (almost no effect))	–	0 (Herbicidal ratio of 5% or lower (almost no effect))	0 (Herbicidal ratio of 5% or lower (almost no effect))	–	–	0 (Herbicidal ratio of 5% or lower (almost no effect))	0 (Herbicidal ratio of 5% or lower (almost no effect))	0 (Herbicidal ratio of 5% or lower (almost no effect))	2 (Herbicidal ratio of 20% or higher and lower than 40%)	F: Digitaria ciliaris, herbicidal effect grade (Digitaria ciliaris; [9]): 5 (Herbicidal ratio of 90% or more (almost completely withered)); N: Amaranthus retroflexus, herbicidal effect grade (Amaranthus retroflexus; [9]): 0 (Herbicidal ratio of 5% or lower (almost no effect)); K: Lolium multiflorum Lam., herbicidal effect grade (Lolium multiflorum Lam. [3]; [9]): 5 (Herbicidal ratio of 90% or more (almost completely withered)); M: Abutilon theophrasti, herbicidal effect grade (Abutilon theophrasti [5]; [9]): 0 (Herbicidal ratio of 5% or lower (almost no effect)); c: corn, effect on crop grade (corn [6]; [9]): 0 (Herbicidal ratio of 5% or lower (almost no effect)); H: Echinochloa crus-galli var. crus-galli, herbicidal effect grade [7, 9]: 5 (Herbicidal ratio of 90% or more (almost completely withered)); d: soybean, effect on crop grade (soybean; [9]): 0 (Herbicidal ratio of 5% or lower (almost no effect))
